Assays:
OsGSTF5 = assay: Pyroxasulfone metabolizing activity based on fatty acid content in cultured rice cells; type: cell-based; conditions: cultured rice cells with OsGSTF5 gene; 10^−6 M treatment group
Protocol: (§1) The transgenic cultured rice cells thus prepared were used for liquid culture in the presence of pyroxasulfone. Pyroxasulfone was added to the liquid medium as an acetone solution. The final acetone concentration was 0.1%. When liquid culture was carried out, cultured rice cells transformed with KLB-279 (a plasmid comprising Act1p (rice actin 1 promoter)::sGFP::NOSt incorporated into the MCS of PalSelect R-4) were designated as the control samples. Liquid culture was carried out as described below. […]
(§2) Fatty acid was extracted using undecenoic acid (C11:1) as an internal standard. As analytical standards, Supelco FAME mix containing C14:0, C16:0, C16:1, C18:0, C18:1, C18:2, C18:3, C20:0, C22:0, C22:1, and C24:0 and other fatty acid methyl esters (C11:1, C15:0, C20:1, and C26:0) were used, and calibration curves thereof were prepared, followed by quantification. […] Quantitative and qualitative analyses were carried out as methyl esters, although fatty acid methyl esters were converted into fatty acids at the time of quantitative analysis. […]

OsGSTU5 = assay: as above; type: cell-based; conditions: cultured rice cells with OsGSTU5 gene; 10^−6 M treatment group
Protocol: as §1, §2

[1] = tested on: transgenic rapeseed plants comprising the TaQ8GTC0 gene; assay: Rapeseed sensitivity test 1 (post-sowing/pre-emergence soil treatment), transgenic; type: in vivo, Brassica napus
Protocol: Wild-type rapeseed plants (variety: Westar) and transgenic rapeseed plants comprising the wheat GST gene introduced therein were subjected to Rapeseed sensitivity test 1 in plastic pots (length: 8 cm; width: 8 cm; height: 6 cm). The test was carried out in Fujino soil (sandy loam soil), and 4 seeds of wild-type rapeseed and 8 seeds of transgenic rapeseed were sown in each pot (sowing depth: 1 cm). Water dispersible granules containing 50% pyroxasulfone were applied at 5 different doses of 1, 4, 16, 63, and 250 g a.i./ha (n=3). Immediately after pyroxasulfone treatment, about 1 mm of rain was fallen with the use of artificial rainfall device, and water was supplied from the bottom of the pots. Thereafter, water was supplied from the bottom of the pot when the soil surface was dried in the pot, according to need.
The difference in the sensitivity of rapeseed to pyroxasulfone applied pre-emergence was examined (temperature: 22° C., fluorescent light), and whether or not the transgenic rapeseed plant comprising wheat GST had pyroxasulfone resistance was evaluated in terms of the plant height, the herbicidal symptoms, and the cotyledon growth. Specifically, heights of the plants were measured 2 weeks after seeds sowing of rapeseed and pyroxasulfone application, and the inhibition was assessed by comparison to control plants grown in the absence of pyroxauslfone (n=4 to 12). In FIGS. 37 to 39, “TaGST” stands for a transgenic rapeseed plant comprising the TaQ8GTC0 gene. Values in the table in FIG. 38 are expressed as the mean±standard deviation (n=4 to 12).

Structure (SMILES): Cn1nc(C(F)(F)F)c(CS(=O)(=O)C2=NOC(C)(C)C2)c1OC(F)F [Pyroxasulfone, 3-[5-(difluoromethoxy)-1-methyl-3-(trifluoromethyl)pyrazol-4-ylmethylsulfonyl]-4,5-dihydro-5,5-dimethyl-1,2-oxazole]
- pyroxasulfone metabolizing activity (C15:0 and VLCFA contents) (OsGSTF5): no pyroxasulfone metabolizing activity
- pyroxasulfone metabolizing activity (C15:0 and VLCFA contents) (OsGSTU5): no pyroxasulfone metabolizing activity
- cotyledon growth ([1]; 250 g a.i./ha): grew to a certain extent
- inhibition at 16 g/ha ([1]; Brassica napus, 336 h, 16 g a.i./ha, 2 weeks after sowing and application, 22° C., read-out: shoot growth inhibition (plant height)): 48.2%
- herbicidal symptoms (cotyledons dark green) ([1]; pre-emergence soil treatment, doses up to 250 g a.i./ha): not detected

Source: patent publication US11198710B2, “Transgenic plant having herbicide resistance” (priority 2016, dated 2021)
